From patent US9499823B2, “Constructs expressing chimeric receptors and use thereof for the controlled activation of defence response to pathogens in plants” (priority 2009, dated 2016)
“Also recorded” adds a separate entry of the source.

Key:
[1] = test system: Arabidopsis ecotype Wassilewskija (Ws-0) leaves; test: H2O2 accumulation (DAB staining) and callose deposition (aniline blue) in stably transformed Arabidopsis Ws-0; format: cell-based, Arabidopsis thaliana; conditions: flg22 1 μM, 1 h, stably transformed Ws-0 plants
Experimental: A) Histochemical analysis of defense responses upon 1 h of treatment with H2O, flg22 (1 μM) or elfl8 (10 μM).
(§1) 3,3′-diaminobenzidine (DAB) staining, callose deposition and gene resistance analysis were assayed as described (Galletti et al., 2008). For measuring active oxygen species released by tobacco agroinfiltrated plants after elicitor treatment, the authors used a modified luminol-dependent assay (Gomez et al., 1999). Slices, corresponding to approximately 30 mg fresh weight, were transferred to assay tubes containing 1 μM flg22 or 10 μM elfl8 in aqueous solution supplied with 40 μM luminol (SIGMA). Chemo-luminescence was measured in a liquid scintillation counter (LS-6500, Beckman) after 5 and 15 min upon addition of elicitors.
(§2) Fluorescent eJMC and FLS2 were also stably expressed in transgenic Arabidopsis ecotype Wassilewskija (Ws-0), which carries EFR but lacks a flg22 perception system (Gomez-Gomez et al., 1999, Bauer et al., 2001). Transformed T1 plants expressing the proteins, named eJMC plants and FLS2 plants, respectively, were selected by confocal microscopy analysis of adult rosette leaves. […] Fluorescence was detected only in adult rosette leaves, likely due to a low expression level of the receptor at the different developmental stages.

[2] = test system: RetOx, CYP81F2 and PAD3 transcripts; test: Elicitor-induced accumulation of Ret-Ox, CYP81F2 and PAD3 transcripts, semi-quantitative PCR; format: cell-based, Arabidopsis thaliana; conditions: flg22 1 μM, 30 minutes, stably transformed Ws-0 plants
Experimental: B) Elicitor induced accumulation of Ret-Ox, CYP81F2 and PAD3 transcripts analysed by semi-quantitative PCR, using the UBQ5 gene for normalization. Leaves were incubated with water, flg22 (1 μM), elfl8 (10 μM) or a generic peptide (10 μM) for 30 minutes. The experiment was repeated three times with similar results. The same experiment was performed in a second independent transgenic line expressing eJMC with similar results.
as §1, §2

[3] = test system: transgenic Arabidopsis Ws-0 seedlings; test: Seedling growth inhibition by flg22 in transgenic Ws-0; format: in vivo, Arabidopsis thaliana; conditions: data not shown
From the text: as §2

[4] = test system: Pseudomonas syringae DC3000; test: Pseudomonas DC3000 infection of Arabidopsis Ws-0 plants by spraying; format: in vivo; conditions: transgenic Ws-0 plants vs Ws-0 wild type, 4 days post infection
From the text: C) Pseudomonas DC3000 infections. (Left Panel) Symptoms disease of wild type and transformed plants after 4 days post infection. (Right panel) Growth of Pseudomonas syringae DC3000 after 4 day post infection. ***, p<0.005.
The authors therefore infected A. thaliana plants by spraying Pst DC3000 bacteria onto leaf surfaces. […] Higher resistance of eJMC plants, compared to Ws-0 wild-type plants, was found in all of three independent experiments.

[5] = test system: At3g22270 and At4g37640 transcripts; test: Elicitor-induced At3g22270 and At4g37640 expression, semi-quantitative PCR, Arabidopsis Col-0 / Col-0 efr; format: cell-based, Arabidopsis thaliana; conditions: transgenic Col-0 efr plants
Experimental: (A) Induction of ethylene biosynthesis in agroinfiltrated tobacco explants expressing EFR, WAK1, WEG and EWAK. […] Agroinfiltrated leaf tissues expressing EFR or WEG and elicited with OGs or elfl8 respectively, represented our negative control. Values are means±s.e.m. (N=3). (B) Elicitor-induced gene expression in untransformed Col-0 and Col-0 efr plants, and in transgenic Arabidopsis Col-0 efr plants stably expressing WEG. Accumulation of At3g22270 and At4g37640 transcripts was analysed by semi-quantitative PCR, using the UBQ5 gene for normalization. Adult leaves were syringe-infiltrated with water, OGs (25 μg/ml) or elfl8 (10 μM) for 3 h. The experiment was repeated three times with similar results. The same experiment was performed in a second independent transgenic line expressing WEG with similar results.
The ability of WEG to activate downstream responses upon stimulation with OGs was analysed in agroinfiltrated tobacco.

[6] = test system: Pectobacterium carotovorum subsp. carotovorum; test: Infection assay with Pectobacterium carotovorum on transgenic Arabidopsis leaves; format: in vivo; conditions: transgenic Arabidopsis vs Col-0 or Col-0 efr, 24 h, 5×10^7 CFU/ml
Experimental: Inoculum concentration was 5×10^7 CFU/ml). Values are means±SE of at least 16 lesions. Asterisks indicate statistically significant differences against control plants (Col-0 or Col-0 efr), according to Student's t test (*, p<0.0005).
Agrobacterium tumefaciens GV3101 strain infections was performed as described in Katagiri et al., (2002) and using a concentration of Agrobacterium corresponding at an OD600 of 1.0 in 10 mM MgCl2 and 600 μM acetosyringone. After 24 h of infiltration, serial dilution of Agrobacterium colonies were deposited on LB agar supplemented with gentamycin and rifampicin and grown for 2-3 days at 28° C. in the dark. At least 5 independent plants and 3 different leaves by plant, were used per experiment. Pectobacterium carotovorum subsp. carotovorum infections Pectobacterium carotovorum subsp. carotovorum (formely Erwinia carotovora; Gardan et al., 2003) (strain DMSZ 30169) was obtained from DSMZ GmbH (Germany). A liquid colture using 10 ml LB medium was prepared. […]
For infection, fully developed leaves of 4 week old Arabidopsis plants were detached and placed in 0.8% agar Petri dishes. […] Symptoms were scored measuring the area of macerated tissue after 24 hour post inoculation at 22° C. and 12 h photoperiod. Area was measured by ImageJ software. […]

[7] = test system: transgenic Arabidopsis leaves; test: Constitutive activation of defense responses (H2O2, callose) in transgenic plants; format: cell-based, Arabidopsis thaliana; conditions: no elicitor
Experimental: Leaves were stained with 3,3′-diaminobenzidine (DAB) for H2O2 visualization (upper panel) and with aniline blue for callose visualization (lower panel).
as §1

Molecule | H2O2 production induced by flg22 [1] | callose deposition induced by flg22 [1] | expression of RetOx, CYP81F2 and PAD3 induced by flg22 [2] | growth inhibition of transgenic seedlings treated with flg22 [3] | development of disease symptoms / susceptibility to Pst DC3000 [4] | numbers of bacteria in leaves [4] | induction of At3g22270 and At4g37640 by other elicitors ([5]; 3 h) | induction of At3g22270 and At4g37640 by OGs ([5]; OGs 25 μg/ml, 3 h) | constitutive activation of At3g22270 and At4g37640 expression ([5]; water controls) | resistance to Pectobacterium carotovorum subsp. carotovorum [6] | constitutive activation of defense responses (H2O2 levels, callose deposits) [7]
FLS2 [reference compound] | induced | induced | induced | did not show growth inhibition | Ws-0 plants showed a faster and more severe development of disease symptoms | higher numbers of bacteria in Ws-0 | – | – | – | – | –
eJMC: chimera (Arg806FLS2-Val650EFR): LRR and eJM domains of FLS2 fused upstream of TM, iJM and kinase domains of EFR, GFP-fused | induced | induced | induced | did not show growth inhibition | Ws-0 plants showed a faster and more severe development of disease symptoms; also recorded: less susceptible | higher numbers of bacteria in Ws-0 | – | – | – | – | –
WEG: chimeric receptor: WAK1 ectodomain fused to the TM-iJM-kinase portion of EFR, GFP-fused (protein, left off: large carriers) QHQPGENCQNKCGNITIEYPFGISSGCYYPGNESFSITCKEDRPHVLSDIEVANFNHSGQLQVLLNRSSTCYDEQGKKTEEDSSFTLENLSLSANNKLTAVGCNALSLLDTFGMQNYSTACLSLCDSPPEADGECNGRGCCRVDVSAPLDSYTFETTSGRIKHMTSFHDFSPCTYAFLVEDDKFNFSSTEDLLNLRNVMRFPVLLDWSVGNQTCEQVGSTSICGGNSTCLDSTPRNGYICRCNEGFDGNPYLSAGCQDVNECTTSSTIHRHNCSDPKTCRNKVGGFYCKCQSGYRLDTTTMSCKRKEVVSGICIGIASLLLIIIVASLCWFMKRKKKNNASDGNPSDSTTLGMFHEKVSYEELHSATSRFSSTNLIGSGNFGNVFKGLLGPENKLVAVKVLNLLKHGATKSFMAECETFKGIRHRNLVKLITVCSSLDSEGNDFRALVYEFMPKGSLDMWLQLEDLERVNDHSRSLTPAEKLNIAIDVASALEYLHVHCHDPVAHCDIKPSNILLDDDLTAHVSDFGLAQLLYKYDRESFLNQFSSAGVRGTIGYAAPEYGMGGQPSIQGDVYSFGILLLEMFSGKKPTDESFAGDYNLHSYTKSILSGCTSSGGSNAIDEGLRLVLQVGIKCSEEYPRDRMRTDEAVRELISIRSKFFSSKTTITESPRDAPQSSPQEWMLNTDMHTM | – | – | – | – | – | – | not by other elicitors | induced by OGs | No constitutive activation | increased resistance; also recorded: confers resistance | do not show constitutive activation of defense responses
